In patent US9023821B2, “Use of MicroRNA for treating diseases associated with a dysfunction of the cilia in multiciliated epithelial cells” (Centre National de la Recherche Scientifique, priority 2009, dated 2015):

Key:
[1] = system: human airway epithelial cells (HAECs); test: High-throughput sequencing (HTS) of miRNAs at four stages of differentiation of HAECs; conditions: for Modulation (ratio of the level of intensity of expression in log2 in two stages of differentiation) measured by high-throughput sequencing, D7 − D0 / Modulation (ratio of the level of intensity of expression in log2 in two stages of differentiation) measured by high-throughput sequencing, FC − D7 / Modulation (ratio of the level of intensity of expression in log2 in two stages of differentiation) measured by high-throughput sequencing, WD − D0 / Modulation (ratio of the level of intensity of expression in log2 in two stages of differentiation) measured by high-throughput sequencing, WD − FC / Level of intensity of expression in log2 measured by high-throughput sequencing, D0 / Level of intensity of expression in log2 measured by high-throughput sequencing, D7 / Level of intensity of expression in log2 measured by high-throughput sequencing, FC / Level of intensity of expression in log2 measured by high-throughput sequencing, WD: Table VI; for Level of intensity of expression in log2 At the differentiated stage (WD) measured in HTS: healthy human airway epithelial tissue; for Level of intensity of expression in log2 measured by high-throughput sequencing, D0: stage D0; for Level of intensity of expression in log2 measured by high-throughput sequencing, D7: stage D7; for Level of intensity of expression in log2 measured by high-throughput sequencing, FC: stage FC; for Level of intensity of expression in log2 At the differentiated stage (WD) measured in HTS / Level of intensity of expression in log2 measured by high-throughput sequencing, WD: stage WD
Outline: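 ALI cultures sampled at day 0, day 7, first-cilia stage (~14 d) and full differentiation (~21 d). Trizol lysis, column purification retaining small RNAs. Adaptor ligation, RT at 42° C for 30 min, PCR, gel selection of ~105-150 base products.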

[2] = system: human airway epithelial cells (HAECs); test: Agilent miRNA chips, miRNA expression at four stages of differentiation of HAECs; conditions: for Modulation (ratio of the level of intensity of expression in log2 in two stages of differentiation) measured with the Agilent chips, D7 − D0 / Modulation (ratio of the level of intensity of expression in log2 in two stages of differentiation) measured with the Agilent chips, FC − D7 / Modulation (ratio of the level of intensity of expression in log2 in two stages of differentiation) measured with the Agilent chips, WD − D0 / Modulation (ratio of the level of intensity of expression in log2 in two stages of differentiation) measured with the Agilent chips, WD − FC / Level of intensity of expression in log2 measured with the Agilent chips, D0 / Level of intensity of expression in log2 measured with the Agilent chips, D7 / Level of intensity of expression in log2 measured with the Agilent chips, FC / Level of intensity of expression in log2 measured with the Agilent chips, WD: Table VI; for Modulation (ratio of the level of intensity of expression in log2 at two stages of differentiation), FC − D7 / Modulation (ratio of the level of intensity of expression in log2 at two stages of differentiation), WD − FC: Agilent miRNA chips, Table V; for Level of intensity of expression in log2 measured with the Agilent chips, D0: stage D0; for Level of intensity of expression in log2 measured with the Agilent chips, D7: stage D7; for Level of intensity of expression in log2 measured with the Agilent chips, FC: stage FC; for Level of intensity of expression in log2 measured with the Agilent chips, WD: stage WD
Outline: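 Expression read from hybridization signals on Human miRNA Microarray v2 arrays spanning all miRBase v.12.0 human miRNAs plus 89 viral ones. Samples are RNA from the same patients profiled by sequencing, labelled with the standard kit.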

[3] = system: basal cells and pyramidal cells of the airway epithelium; test: miRNA expression in sorted basal cells versus pyramidal cells (ciliated + secretory), HTS and Agilent chips; parameters: species or system human; conditions: for Modulation of expression of the miRNAs in pyramidal cells (323(−)) relative to basal cells 323(+): HTS and Agilent chips; for Intensity of the level of expression in log2 in pyramidal cells (323(−)): pyramidal cells (ciliated + secretory)
Outline: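 FACS on CD151 and tissue factor: double-positive = basal, double-negative = ciliated + mucus cells; DAPI, doublets, aggregates excluded; sort at 5000 events/s. Purity checked by cytometry/immunocytochemistry. miRNA by Agilent array or HTS on total RNA. Source: nasal polyps/conchae, 3 donors.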

Substance	Modulation (ratio of the level of intensity of expression in log2 in two stages of differentiation) measured by high-throughput sequencing, D7 − D0 [1] [log2]	Modulation (ratio of the level of intensity of expression in log2 in two stages of differentiation) measured by high-throughput sequencing, FC − D7 [1] [log2]	Modulation (ratio of the level of intensity of expression in log2 in two stages of differentiation) measured by high-throughput sequencing, WD − D0 [1] [log2]	Modulation (ratio of the level of intensity of expression in log2 in two stages of differentiation) measured by high-throughput sequencing, WD − FC [1] [log2]	Level of intensity of expression in log2 At the differentiated stage (WD) measured in HTS [1] [log2]	Level of intensity of expression in log2 measured by high-throughput sequencing, D0 [1] [log2]	Level of intensity of expression in log2 measured by high-throughput sequencing, D7 [1] [log2]	Level of intensity of expression in log2 measured by high-throughput sequencing, FC [1] [log2]	Level of intensity of expression in log2 measured by high-throughput sequencing, WD [1] [log2]	Modulation (ratio of the level of intensity of expression in log2 in two stages of differentiation) measured with the Agilent chips, D7 − D0 [2] [log2]	Modulation (ratio of the level of intensity of expression in log2 at two stages of differentiation), FC − D7 [2] [log2]	Modulation (ratio of the level of intensity of expression in log2 in two stages of differentiation) measured with the Agilent chips, FC − D7 [2] [log2]	Modulation (ratio of the level of intensity of expression in log2 in two stages of differentiation) measured with the Agilent chips, WD − D0 [2] [log2]	Modulation (ratio of the level of intensity of expression in log2 at two stages of differentiation), WD − FC [2] [log2]	Modulation (ratio of the level of intensity of expression in log2 in two stages of differentiation) measured with the Agilent chips, WD − FC [2] [log2]	Level of intensity of expression in log2 measured with the Agilent chips, D0 [2] [log2]	Level of intensity of expression in log2 measured with the Agilent chips, D7 [2] [log2]	Level of intensity of expression in log2 measured with the Agilent chips, FC [2] [log2]	Level of intensity of expression in log2 measured with the Agilent chips, WD [2] [log2]	Modulation of expression of the miRNAs in pyramidal cells (323(−)) relative to basal cells 323(+) [3]	further results
hsa-miR-96: human miRNA, SEQ ID No. 51 (UUUGGCACUAGCACAUUUUUGCU; expressed or natural sequence; listed as Homo sapiens)	−0.08	−0.71	0.02	0.81	12.65	5.41	5.33	4.62	5.43	1.19	−0.50	−0.50	0.64	−0.04	−0.04	8.52	9.71	9.21	9.16	−1.51	Intensity of the level of expression in log2 in basal cells (323(+)) [3]: 6.81 log2; Intensity of the level of expression in log2 in pyramidal cells (323(−)) [3]: 5.30 log2
hsa-miR-99a: human miRNA, SEQ ID No. 52 (AACCCGUAGAUCCGAUCUUGUG; expressed or natural sequence; listed as Homo sapiens)	1.43	0.77	2.88	0.69	9.00	9.77	11.19	11.96	12.65	2.33	0.77	0.77	3.28	0.19	0.19	5.02	7.35	8.12	8.31	0.99	Modulation (ratio of the level of intensity of expression in log2 in two stages of differentiation), D7 − D0 ([1]; HTS): 1.43 log2; Modulation (ratio of the level of intensity of expression in log2 in two stages of differentiation), FC − D7 ([1]; HTS): 0.77 log2; Modulation (ratio of the level of intensity of expression in log2 in two stages of differentiation), WD − FC ([1]; HTS): 0.69 log2; Abundance (%), D0 ([1]; HTS, ALI-D0): 0.19%; Abundance (%), D7 ([1]; HTS, ALI-D7): 0.52%; Abundance (%), FC ([1]; HTS, ALI-FC): 0.85%; Abundance (%), WD ([1]; HTS, ALI-WD): 1.03%; Intensity of the level of expression in log2 in basal cells (323(+)) [3]: 5.42 log2; Intensity of the level of expression in log2 in pyramidal cells (323(−)) [3]: 6.40 log2
